Measured values: paper PMC8066102, “Metabolic Profiles of New Unsymmetrical Bisacridine Antitumor Agents in Electrochemical and Enzymatic Noncellular Systems and in Tumor Cells” (Pharmaceuticals, 2021)

Columns and labels:
Type in all cases: in vitro ADME
[1] = biological target: T1, P4503A4 (Homo sapiens, UniProt P08684); assay: Metabolism with human recombinant P4503A4; conditions: 0.05 mM compound, 1 mg/mL P4503A4, 2 mM NADPH, 30 min
T1 construct: purchased Cypex, Dundee, Scotland, UK (through Tebu-Bio); host or cells: Escherichia coli (Bactosomes)
Protocol: (§1) UT-RLMs (2 mg/mL) and P450-RLMs induced with Dex, 3MC, or PB and recombinant P4502C19 and P4503A4 (1 mg/mL) were assayed for activity toward tested UAs as follows. The proteins were incubated in a buffer containing 0.1 M HEPES (pH 7.4), 2 mM MgCl2 with 0.05 mM substrate in total volume 70 µL. Substrates were added also in buffer HEPES, pH 7.4. Reactions were started by the addition of NADPH (2 mM) and were incubated for specified time at 37 °C. The reactions were stopped by the addition of 8.75 µL of 1 M HCl, followed by centrifugation at 13,400 rpm for 10 min to pellet the denatured protein. The supernatant fractions were used for high-performance liquid chromatography (HPLC) analysis. Control reactions omitting substrate were run with each assay. All incubations were performed in two repetitions.

[2] = biological target: T2, P4502C19 (Homo sapiens, UniProt P33261); assay: Metabolism with human recombinant P4502C19; conditions: 0.05 mM compound, 1 mg/mL P4502C19, 2 mM NADPH, 30 min
T2 construct: purchased Cypex, Dundee, Scotland, UK (through Tebu-Bio); host or cells: Escherichia coli (Bactosomes)
Protocol: as §1

[3] = biological target: T3, UGT 1A9 (Homo sapiens, UniProt O60656); assay: Glucuronidation with recombinant UGT1A9; parameters: key: −: the lack of UGT activity; +: the significant UGT activity; conditions: 0.05 mM compound, 1 mg/mL UGT, 5 mM UDPGA
T3 construct: His tag; purchased Corning, NY, USA (through DIAG-MED, Poland); host or cells: baculovirus-insect cells (Supersomes); Results say Sf9 cells
T3 sequence (O60656 26-530): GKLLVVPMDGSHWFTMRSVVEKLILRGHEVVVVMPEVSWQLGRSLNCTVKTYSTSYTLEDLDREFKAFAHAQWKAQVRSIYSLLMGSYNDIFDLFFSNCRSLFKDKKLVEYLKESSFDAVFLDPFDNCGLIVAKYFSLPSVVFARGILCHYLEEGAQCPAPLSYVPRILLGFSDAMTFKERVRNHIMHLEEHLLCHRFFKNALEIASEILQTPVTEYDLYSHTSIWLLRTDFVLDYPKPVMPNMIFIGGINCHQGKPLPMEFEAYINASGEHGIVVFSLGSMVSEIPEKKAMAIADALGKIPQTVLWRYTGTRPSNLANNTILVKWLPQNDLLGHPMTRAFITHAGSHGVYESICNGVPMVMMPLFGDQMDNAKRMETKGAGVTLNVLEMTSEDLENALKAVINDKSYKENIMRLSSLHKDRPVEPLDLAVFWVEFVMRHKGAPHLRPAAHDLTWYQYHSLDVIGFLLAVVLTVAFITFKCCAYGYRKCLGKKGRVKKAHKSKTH
Protocol: (§2) Recombinant UGT isoform protein (1 mg/mL) was assayed for activity toward tested UAs as follows. The proteins were incubated in a buffer containing 0.1 M HEPES (pH 7.4), 8 mM MgCl2 and alamethicin (25 μg/mL) with either 0.05 mM substrate in total volume 70 µL (alamethicin was added to permeabilize the membrane). Substrates were also in buffer HEPES, pH 7.4. Reactions were started by the addition of UDPGA (5 mM) and were incubated for specified time at 37 °C. The reactions were stopped by the addition of 8.75 µL of 1 M HCl, followed by centrifugation at 13400 rpm for 10 min to pellet the denatured protein. The supernatant fractions were used for HPLC analysis. Control reactions omitting substrate were run with each assay. All incubations were performed in two repetitions.

[4] = biological target: T4, UGT 1A10 (Homo sapiens, UniProt Q9HAW8); assay: Glucuronidation with recombinant UGT1A10; parameters: key to Glucuronidation potency UGT 1A10: −: the lack of UGT activity; +: the significant UGT activity; conditions: 0.05 mM compound; for Glucuronidation potency UGT 1A10: 1 mg/mL UGT, 5 mM UDPGA
T4 construct: His tag; purchased Corning, NY, USA (through DIAG-MED, Poland); host or cells: baculovirus-insect cells (Supersomes); Results say Sf9 cells
T4 sequence (Q9HAW8 26-530): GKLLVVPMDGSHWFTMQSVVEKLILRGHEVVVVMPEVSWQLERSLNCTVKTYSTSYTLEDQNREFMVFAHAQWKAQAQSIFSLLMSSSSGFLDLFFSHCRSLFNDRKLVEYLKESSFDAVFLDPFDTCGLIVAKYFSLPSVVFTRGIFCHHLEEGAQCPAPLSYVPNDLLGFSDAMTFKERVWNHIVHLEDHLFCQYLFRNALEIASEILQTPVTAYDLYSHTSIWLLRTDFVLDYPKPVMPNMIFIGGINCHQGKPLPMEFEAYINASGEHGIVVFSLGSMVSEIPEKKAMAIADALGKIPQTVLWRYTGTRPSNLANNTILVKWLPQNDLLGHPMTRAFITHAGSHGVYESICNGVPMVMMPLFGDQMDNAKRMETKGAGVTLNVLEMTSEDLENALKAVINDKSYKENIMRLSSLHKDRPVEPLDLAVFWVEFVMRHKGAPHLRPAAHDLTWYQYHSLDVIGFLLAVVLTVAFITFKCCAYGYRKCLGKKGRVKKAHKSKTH
Protocol: as §2

[5] = biological target: T5, UGT 2B4 (Homo sapiens, UniProt P06133); assay: Glucuronidation with recombinant UGT2B4; parameters: key: −: the lack of UGT activity; +: the significant UGT activity; conditions: 0.05 mM compound, 1 mg/mL UGT, 5 mM UDPGA
T5 construct: purchased Corning, NY, USA (through DIAG-MED, Poland); host or cells: baculovirus-insect cells (Supersomes)
T5 sequence (P06133 24-528): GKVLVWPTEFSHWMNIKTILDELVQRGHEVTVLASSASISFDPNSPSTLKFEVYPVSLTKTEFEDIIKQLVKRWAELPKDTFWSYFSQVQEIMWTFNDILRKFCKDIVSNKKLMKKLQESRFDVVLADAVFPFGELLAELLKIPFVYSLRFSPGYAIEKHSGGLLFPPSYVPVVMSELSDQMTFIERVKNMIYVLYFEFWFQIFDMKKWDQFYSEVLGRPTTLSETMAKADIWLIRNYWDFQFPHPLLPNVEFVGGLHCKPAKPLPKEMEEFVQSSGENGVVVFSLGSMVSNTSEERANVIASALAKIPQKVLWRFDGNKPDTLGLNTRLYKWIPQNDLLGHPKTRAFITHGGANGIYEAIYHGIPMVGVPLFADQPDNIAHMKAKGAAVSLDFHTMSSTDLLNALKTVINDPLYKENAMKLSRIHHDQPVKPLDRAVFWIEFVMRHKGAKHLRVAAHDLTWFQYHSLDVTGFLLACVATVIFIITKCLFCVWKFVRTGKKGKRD
Protocol: as §2

T2 sequence (P33261 whole entry): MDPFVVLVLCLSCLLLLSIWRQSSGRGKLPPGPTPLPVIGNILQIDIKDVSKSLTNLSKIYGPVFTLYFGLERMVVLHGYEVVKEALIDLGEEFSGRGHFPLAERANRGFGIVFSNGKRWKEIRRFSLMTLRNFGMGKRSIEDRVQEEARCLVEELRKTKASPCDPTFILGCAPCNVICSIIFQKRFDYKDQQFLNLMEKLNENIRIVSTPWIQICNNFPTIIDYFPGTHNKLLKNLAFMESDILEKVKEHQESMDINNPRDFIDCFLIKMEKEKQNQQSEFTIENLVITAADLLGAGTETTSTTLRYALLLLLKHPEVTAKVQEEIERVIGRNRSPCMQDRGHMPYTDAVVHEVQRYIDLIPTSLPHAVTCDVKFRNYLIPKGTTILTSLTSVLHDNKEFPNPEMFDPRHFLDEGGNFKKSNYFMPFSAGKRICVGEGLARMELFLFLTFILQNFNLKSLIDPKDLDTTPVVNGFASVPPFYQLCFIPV
T1 sequence (P08684 whole entry): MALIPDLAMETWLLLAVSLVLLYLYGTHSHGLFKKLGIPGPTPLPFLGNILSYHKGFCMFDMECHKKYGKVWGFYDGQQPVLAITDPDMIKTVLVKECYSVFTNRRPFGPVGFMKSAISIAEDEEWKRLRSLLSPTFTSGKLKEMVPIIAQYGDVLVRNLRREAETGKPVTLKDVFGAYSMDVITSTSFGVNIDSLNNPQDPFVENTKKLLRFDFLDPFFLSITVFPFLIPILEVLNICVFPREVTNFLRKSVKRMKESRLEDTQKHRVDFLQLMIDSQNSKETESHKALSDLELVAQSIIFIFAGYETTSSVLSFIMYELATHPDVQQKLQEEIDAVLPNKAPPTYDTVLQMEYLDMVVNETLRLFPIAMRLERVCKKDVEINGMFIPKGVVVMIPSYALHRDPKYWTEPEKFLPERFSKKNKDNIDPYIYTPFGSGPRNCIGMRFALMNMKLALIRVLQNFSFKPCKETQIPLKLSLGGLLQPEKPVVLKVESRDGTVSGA

Structure (SMILES) | substrate transformed [1] | substrate transformed [2] | Glucuronidation potency UGT 1A9 [3] | Glucuronidation potency UGT 1A10 [4] | Glucuronidation potency UGT 2B4 [5] | rate of metabolism (glucuronidation) with UGT1A10 ([4]; 1 mg/mL UGT1A10, 5 mM UDPGA, 120 min)
CN(CCCNc1c2ccccc2nc2cccc([N+](=O)[O-])c12)CCCNc1ccc2ncn3c4ccccc4c(=O)c1c23 [C-2028] | 72% | 59% | − | − | − | 
Cc1ccc([N+](=O)[O-])c2c(NCCCN(C)CCCNc3ccc4ncn5c6ccccc6c(=O)c3c45)c3ccccc3nc12 [C-2053] | approximately 77% | ~64% | − | − | − | 
Cc1ccc([N+](=O)[O-])c2c(NCCCN(C)CCCNc3ccc4ncn5c6ccc(O)cc6c(=O)c3c45)c3ccccc3nc12 [C-2045] | 30% | 11% | + | + | − | 18%
